Results: PMC5428567, “Pentameric ligand-gated ion channels exhibit distinct transmembrane domain archetypes for folding/expression and function” (Scientific Reports, 2017)

Legend:
ELIC M264A = target: T1, ELIC M264A (Dickeya chrysanthemi, UniProt P0C7B7, M264A); test: TEVC cysteamine-induced current, ELIC M264A; assay type: cell-based; conditions: Xenopus laevis oocytes; ±SD; n=8
T1 construct: expressed in transfected cells; host or cells: Xenopus laevis oocytes injected with cRNA
Description: (§1) To examine how different physical interactions at the M4-M1/M3 interface in both GLIC and ELIC (Fig. 1) influence function, we mutated each residue to Ala, and characterized how each mutation influenced agonist-induced channel gating using two-electrode voltage clamp electrophysiology. Both GLIC and ELIC are cation-selective ion channels that transiently gate open in response to agonist binding, although GLIC responds to protons while ELIC responds to primary amines, such as cysteamine, [34].
(§2) Stage V–VI oocytes were collected as previously described, injected with cRNA, and allowed to incubate one to four days at 16 °C in ND96 + buffer (5 mM HEPES, 96 mM NaCl, 2 mM KCl, 1 mM MgCl2, 1 mM CaCl2, and 2 mM Pyruvate). Whole cell currents were recorded using a two-electrode voltage clamp apparatus (OC-725C oocyte clamp; Holliston, MA). For GLIC, whole cell currents were recorded from injected oocytes (3–20 ng cRNA) immersed in MES buffer (140 mM NaCl, 2.8 mM KCl, 2 mM MgCl2, and 10 mM MES). Currents through the plasma membrane in response to pH jumps (pH 7.3 down to the indicated pH values) were measured with the transmembrane voltage clamped at voltages between −20 mV and −40 mV depending on the level of expression, typically −20 mV. […]

ELIC W223A = target: T2, ELIC W223A (Dickeya chrysanthemi, UniProt P0C7B7, W223A); test: TEVC cysteamine-induced current, ELIC W223A; assay type: cell-based; conditions: Xenopus laevis oocytes; ±SD; n=8
T2 construct: expressed in transfected cells; host or cells: Xenopus laevis oocytes injected with cRNA
T2 sequence (P0C7B7 whole entry W223A): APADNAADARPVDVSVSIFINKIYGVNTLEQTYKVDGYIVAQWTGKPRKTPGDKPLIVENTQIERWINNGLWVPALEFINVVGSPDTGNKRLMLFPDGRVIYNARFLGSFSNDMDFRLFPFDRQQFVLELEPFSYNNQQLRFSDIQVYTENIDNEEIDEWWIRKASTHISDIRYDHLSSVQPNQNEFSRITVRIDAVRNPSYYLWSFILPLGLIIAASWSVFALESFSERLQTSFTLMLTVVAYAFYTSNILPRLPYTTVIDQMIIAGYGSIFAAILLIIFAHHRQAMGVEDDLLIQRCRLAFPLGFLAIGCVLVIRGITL
Description: as §1, §2

ELIC F222A = target: T3, ELIC F222A (Dickeya chrysanthemi, UniProt P0C7B7, F222A); test: TEVC cysteamine-induced current, ELIC F222A; assay type: cell-based; conditions: Xenopus laevis oocytes
T3 construct: expressed in transfected cells; host or cells: Xenopus laevis oocytes injected with cRNA
T3 sequence (P0C7B7 whole entry F222A): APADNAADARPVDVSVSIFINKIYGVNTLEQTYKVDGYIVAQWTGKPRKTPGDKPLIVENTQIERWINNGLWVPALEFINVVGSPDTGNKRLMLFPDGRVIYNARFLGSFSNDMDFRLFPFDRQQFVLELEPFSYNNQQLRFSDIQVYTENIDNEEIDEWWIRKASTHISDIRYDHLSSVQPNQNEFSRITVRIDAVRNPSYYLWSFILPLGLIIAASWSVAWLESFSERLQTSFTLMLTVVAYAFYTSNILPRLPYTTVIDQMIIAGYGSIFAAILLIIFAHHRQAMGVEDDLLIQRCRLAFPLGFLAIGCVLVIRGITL
Description: as §1
Stage V–VI oocytes were collected as previously described, injected with cRNA, and allowed to incubate one to four days at 16 °C in ND96 + buffer (5 mM HEPES, 96 mM NaCl, 2 mM KCl, 1 mM MgCl2, 1 mM CaCl2, and 2 mM Pyruvate). Whole cell currents were recorded using a two-electrode voltage clamp apparatus (OC-725C oocyte clamp; Holliston, MA). For GLIC, whole cell currents were recorded from injected oocytes (3–20 ng cRNA) immersed in MES buffer (140 mM NaCl, 2.8 mM KCl, 2 mM MgCl2, and 10 mM MES). Currents through the plasma membrane in response to pH jumps (pH 7.3 down to the indicated pH values) were measured with the transmembrane voltage clamped at voltages between −20 mV and −40 mV depending on the level of expression, typically −20 mV. For ELIC, whole cell currents were recorded from injected oocytes (0.1–10 ng cRNA) immersed in HEPES buffer (150 mM NaCl, 0.5 mM BaCl2, and 10 mM HEPES, pH 7.0). In most cases, currents through the plasma membrane in response to cysteamine concentration jumps (from 0 mM up to the indicated values) were measured with the transmembrane voltage clamped at −30 mV.
Dose responses for each mutant were acquired from at least two different batches of oocytes. Each individual dose-response experiment was fit with a variable slope sigmoidal dose-response and the individual EC50 values from each experiment averaged to give the reported EC50 values ± standard deviation.

ELIC L314A = system: ELIC L314A; set-up: method as in Henault et al.[9], [18], [29]; conditions: Xenopus laevis oocytes; ±SD; n=8; ref Henault et al.[9], [18], [29]; cited from earlier work
ELIC I208A = target: T4, ELIC I208A (Dickeya chrysanthemi, UniProt P0C7B7, I208A); test: TEVC cysteamine-induced current, ELIC I208A; assay type: cell-based; conditions: Xenopus laevis oocytes; ±SD; n=8
T4 construct: expressed in transfected cells; host or cells: Xenopus laevis oocytes injected with cRNA
T4 sequence (P0C7B7 whole entry I208A): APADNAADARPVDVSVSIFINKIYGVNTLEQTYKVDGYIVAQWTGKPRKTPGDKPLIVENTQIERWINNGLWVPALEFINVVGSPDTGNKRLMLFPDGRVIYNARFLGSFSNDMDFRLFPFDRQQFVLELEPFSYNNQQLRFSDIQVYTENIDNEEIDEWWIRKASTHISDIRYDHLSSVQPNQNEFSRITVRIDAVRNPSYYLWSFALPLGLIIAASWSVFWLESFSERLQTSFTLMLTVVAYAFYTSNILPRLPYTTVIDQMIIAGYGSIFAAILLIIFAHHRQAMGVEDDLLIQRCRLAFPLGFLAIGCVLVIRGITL
Description: as §1, §2

ELIC S271A + F303A = target: T5, ELIC S271A + F303A (Dickeya chrysanthemi, UniProt P0C7B7, F303A/S271A); test: TEVC cysteamine-induced current, ELIC S271A + F303A; assay type: cell-based; conditions: Xenopus laevis oocytes; ±SD; n=8
T5 construct: expressed in transfected cells; host or cells: Xenopus laevis oocytes injected with cRNA (pTLN plasmid)
T5 sequence (P0C7B7 whole entry S271A/F303A): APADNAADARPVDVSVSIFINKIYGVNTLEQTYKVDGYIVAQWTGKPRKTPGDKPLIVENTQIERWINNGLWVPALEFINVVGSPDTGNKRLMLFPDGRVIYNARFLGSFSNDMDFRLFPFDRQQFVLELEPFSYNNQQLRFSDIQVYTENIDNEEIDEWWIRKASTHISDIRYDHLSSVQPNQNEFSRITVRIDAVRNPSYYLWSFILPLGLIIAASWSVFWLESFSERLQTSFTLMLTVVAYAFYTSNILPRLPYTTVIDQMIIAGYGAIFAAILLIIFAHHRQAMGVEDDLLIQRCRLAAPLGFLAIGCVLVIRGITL
Description: as §1, §2

ELIC S271A + F307A = target: T6, ELIC S271A + F307A (Dickeya chrysanthemi, UniProt P0C7B7, F307A/S271A); test: TEVC cysteamine-induced current, ELIC S271A + F307A; assay type: cell-based; conditions: Xenopus laevis oocytes; ±SD; n=8
T6 construct: expressed in transfected cells; host or cells: Xenopus laevis oocytes injected with cRNA (pTLN plasmid)
T6 sequence (P0C7B7 whole entry S271A/F307A): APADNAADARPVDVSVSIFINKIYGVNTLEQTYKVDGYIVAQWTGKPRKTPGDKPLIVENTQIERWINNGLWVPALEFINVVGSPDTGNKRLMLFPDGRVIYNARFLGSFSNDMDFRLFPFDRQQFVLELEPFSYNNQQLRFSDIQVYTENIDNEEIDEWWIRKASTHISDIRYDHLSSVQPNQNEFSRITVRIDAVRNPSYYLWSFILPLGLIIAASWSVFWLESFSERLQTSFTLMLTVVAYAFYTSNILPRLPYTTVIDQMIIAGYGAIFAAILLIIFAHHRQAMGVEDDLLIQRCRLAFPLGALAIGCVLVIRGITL
Description: as §1, §2

ELIC L278A = target: T7, ELIC L278A (Dickeya chrysanthemi, UniProt P0C7B7, L278A); test: TEVC cysteamine-induced current, ELIC L278A; assay type: cell-based; conditions: Xenopus laevis oocytes; ±SD; n=8
T7 construct: expressed in transfected cells; host or cells: Xenopus laevis oocytes injected with cRNA (pTLN plasmid)
T7 sequence (P0C7B7 whole entry L278A): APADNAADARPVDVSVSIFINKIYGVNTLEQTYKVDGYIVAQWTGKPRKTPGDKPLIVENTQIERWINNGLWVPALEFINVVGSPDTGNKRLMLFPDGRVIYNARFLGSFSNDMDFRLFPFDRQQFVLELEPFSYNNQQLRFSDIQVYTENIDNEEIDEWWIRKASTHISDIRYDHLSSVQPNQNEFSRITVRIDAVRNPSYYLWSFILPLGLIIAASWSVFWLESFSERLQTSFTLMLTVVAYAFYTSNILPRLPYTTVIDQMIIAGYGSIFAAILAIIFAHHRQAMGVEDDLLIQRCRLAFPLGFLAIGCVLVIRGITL
Description: as §1, §2

ELIC C299A = system: ELIC C299A; set-up: method as in Henault et al.[9], [18], [29]; conditions: Xenopus laevis oocytes; ±SD; n=9; ref Henault et al.[9], [18], [29]; cited from earlier work
ELIC I310A = system: ELIC I310A; set-up: method as in Henault et al.[9], [18], [29]; conditions: Xenopus laevis oocytes; ±SD; n=10; ref Henault et al.[9], [18], [29]; cited from earlier work
ELIC G311A = system: ELIC G311A; set-up: method as in Henault et al.[9], [18], [29]; conditions: Xenopus laevis oocytes; ±SD; n=11; ref Henault et al.[9], [18], [29]; cited from earlier work
ELIC S271A = target: T8, ELIC S271A (Dickeya chrysanthemi, UniProt P0C7B7, S271A); test: TEVC cysteamine-induced current, ELIC S271A; assay type: cell-based; conditions: Xenopus laevis oocytes; ±SD; n=8
T8 construct: expressed in transfected cells; host or cells: Xenopus laevis oocytes injected with cRNA
T8 sequence (P0C7B7 whole entry S271A): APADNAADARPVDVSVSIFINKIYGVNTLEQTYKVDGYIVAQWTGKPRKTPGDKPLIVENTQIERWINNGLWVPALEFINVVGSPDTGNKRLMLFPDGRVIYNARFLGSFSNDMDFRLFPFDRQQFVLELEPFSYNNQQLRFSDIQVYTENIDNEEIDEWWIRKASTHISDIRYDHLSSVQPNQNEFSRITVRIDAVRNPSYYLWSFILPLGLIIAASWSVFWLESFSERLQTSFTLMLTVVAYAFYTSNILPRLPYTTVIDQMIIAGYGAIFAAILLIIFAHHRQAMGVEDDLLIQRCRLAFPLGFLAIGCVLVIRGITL
Description: as §1, §2

ELIC G318A = system: ELIC G318A; set-up: method as in Henault et al.[9], [18], [29]; conditions: Xenopus laevis oocytes; ±SD; n=10; ref Henault et al.[9], [18], [29]; cited from earlier work
ELIC F222A + C299A = target: T9, ELIC F222A + C299A (Dickeya chrysanthemi, UniProt P0C7B7, C299A/F222A); test: TEVC cysteamine-induced current, ELIC F222A + C299A; assay type: cell-based; conditions: Xenopus laevis oocytes; ±SD; n=8
T9 construct: expressed in transfected cells; host or cells: Xenopus laevis oocytes injected with cRNA (pTLN plasmid)
T9 sequence (P0C7B7 whole entry F222A/C299A): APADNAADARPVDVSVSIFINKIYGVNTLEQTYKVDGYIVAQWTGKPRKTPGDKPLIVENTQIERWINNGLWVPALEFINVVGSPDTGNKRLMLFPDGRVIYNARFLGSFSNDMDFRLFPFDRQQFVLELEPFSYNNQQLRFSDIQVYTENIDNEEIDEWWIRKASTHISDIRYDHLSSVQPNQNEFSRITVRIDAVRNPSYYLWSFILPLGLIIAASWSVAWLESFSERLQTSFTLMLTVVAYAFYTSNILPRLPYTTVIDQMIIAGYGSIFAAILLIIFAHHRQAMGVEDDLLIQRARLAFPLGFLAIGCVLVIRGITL
Description: as §1, §2

ELIC W219A + F307A = target: T10, ELIC W219A + F307A (Dickeya chrysanthemi, UniProt P0C7B7, F307A/W219A); test: TEVC cysteamine-induced current, ELIC W219A + F307A; assay type: cell-based; conditions: Xenopus laevis oocytes; ±SD; n=8
T10 construct: expressed in transfected cells; host or cells: Xenopus laevis oocytes injected with cRNA (pTLN plasmid)
T10 sequence (P0C7B7 whole entry W219A/F307A): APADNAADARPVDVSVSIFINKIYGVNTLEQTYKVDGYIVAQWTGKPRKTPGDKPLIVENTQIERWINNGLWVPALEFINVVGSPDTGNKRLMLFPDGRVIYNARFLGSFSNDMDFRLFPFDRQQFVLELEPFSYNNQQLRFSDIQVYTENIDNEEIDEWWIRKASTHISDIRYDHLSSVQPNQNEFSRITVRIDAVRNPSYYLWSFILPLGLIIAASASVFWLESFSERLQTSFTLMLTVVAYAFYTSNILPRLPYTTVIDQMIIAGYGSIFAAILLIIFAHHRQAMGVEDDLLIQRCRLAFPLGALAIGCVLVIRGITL
Description: as §1, §2

ELIC F281A = target: T11, ELIC F281A (Dickeya chrysanthemi, UniProt P0C7B7, F281A); test: TEVC cysteamine-induced current, ELIC F281A; assay type: cell-based; conditions: Xenopus laevis oocytes; ±SD; n=8
T11 construct: expressed in transfected cells; host or cells: Xenopus laevis oocytes injected with cRNA
T11 sequence (P0C7B7 whole entry F281A): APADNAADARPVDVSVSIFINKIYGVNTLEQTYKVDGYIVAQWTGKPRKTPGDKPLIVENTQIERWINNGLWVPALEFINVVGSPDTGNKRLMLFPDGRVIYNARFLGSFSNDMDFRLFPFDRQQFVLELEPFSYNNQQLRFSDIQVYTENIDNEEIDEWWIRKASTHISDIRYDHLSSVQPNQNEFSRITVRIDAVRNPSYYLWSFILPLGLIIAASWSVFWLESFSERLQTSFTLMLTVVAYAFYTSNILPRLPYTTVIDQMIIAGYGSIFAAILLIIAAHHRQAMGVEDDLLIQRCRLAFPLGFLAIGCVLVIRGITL
Description: as §1, §2

ELIC W219A + F303A = target: T12, ELIC W219A + F303A (Dickeya chrysanthemi, UniProt P0C7B7, F303A/W219A); test: TEVC cysteamine-induced current, ELIC W219A + F303A; assay type: cell-based; conditions: Xenopus laevis oocytes; ±SD; n=8
T12 construct: expressed in transfected cells; host or cells: Xenopus laevis oocytes injected with cRNA (pTLN plasmid)
T12 sequence (P0C7B7 whole entry W219A/F303A): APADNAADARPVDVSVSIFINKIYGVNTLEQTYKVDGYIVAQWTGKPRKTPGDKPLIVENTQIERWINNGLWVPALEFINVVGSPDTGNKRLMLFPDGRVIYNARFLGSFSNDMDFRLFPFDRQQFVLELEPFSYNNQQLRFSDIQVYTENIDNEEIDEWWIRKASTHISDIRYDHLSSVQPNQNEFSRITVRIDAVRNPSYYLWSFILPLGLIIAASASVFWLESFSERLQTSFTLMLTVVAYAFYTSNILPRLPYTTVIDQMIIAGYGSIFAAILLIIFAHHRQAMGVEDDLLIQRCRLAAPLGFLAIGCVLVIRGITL
Description: as §1, §2

T1 sequence (P0C7B7 whole entry M264A): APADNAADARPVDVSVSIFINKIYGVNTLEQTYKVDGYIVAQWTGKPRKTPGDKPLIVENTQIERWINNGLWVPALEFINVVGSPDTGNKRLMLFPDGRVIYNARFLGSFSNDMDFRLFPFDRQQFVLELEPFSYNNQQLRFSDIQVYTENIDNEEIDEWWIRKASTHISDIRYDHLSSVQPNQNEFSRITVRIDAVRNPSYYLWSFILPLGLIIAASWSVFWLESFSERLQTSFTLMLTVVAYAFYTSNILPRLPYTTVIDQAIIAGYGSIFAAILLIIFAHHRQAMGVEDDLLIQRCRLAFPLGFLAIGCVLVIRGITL

## NCCS [cysteamine]
ELIC M264A
  EC50: 1.29 ± 0.12 mM
  −logEC50: 2.89 ± 0.04
ELIC W223A
  EC50: 1.23 ± 0.06 mM
  −logEC50: 2.91 ± 0.02
ELIC F222A; shift versus WT
  gain-of-function relative to WT ELIC: 10 fold
ELIC F222A; ±SD, n=8
  EC50: 90 ± 30 µM
  −logEC50: 4.05 ± 0.15
ELIC L314A
  EC50: 420 ± 50 µM
  −logEC50: 3.38 ± 0.05
ELIC I208A
  EC50: 250 ± 50 µM
  −logEC50: 3.60 ± 0.09
ELIC S271A + F303A
  EC50: 620 ± 130 µM
  −logEC50: 3.21 ± 0.09
ELIC S271A + F307A
  EC50: 770 ± 90 µM
  −logEC50: 3.11 ± 0.05
ELIC L278A
  EC50: 1.07 ± 0.1 mM
  −logEC50: 2.97 ± 0.04
ELIC C299A
  EC50: 560 ± 80 µM
  −logEC50: 3.25 ± 0.06
ELIC I310A
  EC50: 880 ± 90 µM
  −logEC50: 3.05 ± 0.04
ELIC G311A
  EC50: 510 ± 100 µM
  −logEC50: 3.29 ± 0.09
ELIC S271A
  EC50: 820 ± 50 µM
  −logEC50: 3.09 ± 0.03
ELIC G318A
  EC50: 760 ± 130 µM
  −logEC50: 3.12 ± 0.08
ELIC F222A + C299A
  EC50: 100 ± 20 µM
  −logEC50: 4.00 ± 0.09
ELIC W219A + F307A
  EC50: 450 ± 70 µM
  −logEC50: 3.35 ± 0.07
ELIC F281A
  EC50: 880 ± 50 µM
  −logEC50: 3.06 ± 0.02
ELIC W219A + F303A
  EC50: 550 ± 120 µM
  −logEC50: 3.26 ± 0.10
